Experimental data: patent US10988477B2 (Merck Patent GmbH, priority 2018, dated 2021)
Read-outs that look alike come from different tables or passages of the source.

Columns and labels:
GCN2 kinase = GCN2 kinase (Homo sapiens, UniProt Q9P2K8); experiment: GCN2 enzyme inhibition assay (Transcreener ADP2 fluorescence polarization); format: biochemical; conditions: 280 μM ATP
Outline: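 4 nM GCN2 + 200 μM (RS)7 + compound (0–8 μM), 10 min preinc.; start with ATP (280 μM final); 1 h, 25 °C; pH 7.5 Tris/NaCl/MgCl2/DTT; ADP FP readout; IC50, Ki(app) via tight-binding fit.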

[1] = molecular target: intracellular GCN2 (phosphorylation of the GCN2 substrate eIF2α) (Homo sapiens, UniProt Q9P2K8); experiment: GCN2 cellular inhibition assay (AlphaScreen SureFire P-eIF2α Ser51, borrelidin-treated U2OS cells); format: cell-based
Outline: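 Read-out: AlphaScreen SureFire phospho-eIF2α (Ser51) signal in U2OS lysates. Cells get 4-fold compound dilutions (top 40 μM final) plus 10 μM borrelidin, 1 h, 37 °C. Percent inhibition is relative to borrelidin-alone controls.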

[2] = Enzyme activity for compounds of Formula IV, Ki(app), 25° C.
[3] = compounds of Formula IV, biomarker assay, phosphorylated eIF2α Ser51 in borrelidin-treated U2OS cells

Chain of GCN2 kinase (Q9P2K8 whole entry): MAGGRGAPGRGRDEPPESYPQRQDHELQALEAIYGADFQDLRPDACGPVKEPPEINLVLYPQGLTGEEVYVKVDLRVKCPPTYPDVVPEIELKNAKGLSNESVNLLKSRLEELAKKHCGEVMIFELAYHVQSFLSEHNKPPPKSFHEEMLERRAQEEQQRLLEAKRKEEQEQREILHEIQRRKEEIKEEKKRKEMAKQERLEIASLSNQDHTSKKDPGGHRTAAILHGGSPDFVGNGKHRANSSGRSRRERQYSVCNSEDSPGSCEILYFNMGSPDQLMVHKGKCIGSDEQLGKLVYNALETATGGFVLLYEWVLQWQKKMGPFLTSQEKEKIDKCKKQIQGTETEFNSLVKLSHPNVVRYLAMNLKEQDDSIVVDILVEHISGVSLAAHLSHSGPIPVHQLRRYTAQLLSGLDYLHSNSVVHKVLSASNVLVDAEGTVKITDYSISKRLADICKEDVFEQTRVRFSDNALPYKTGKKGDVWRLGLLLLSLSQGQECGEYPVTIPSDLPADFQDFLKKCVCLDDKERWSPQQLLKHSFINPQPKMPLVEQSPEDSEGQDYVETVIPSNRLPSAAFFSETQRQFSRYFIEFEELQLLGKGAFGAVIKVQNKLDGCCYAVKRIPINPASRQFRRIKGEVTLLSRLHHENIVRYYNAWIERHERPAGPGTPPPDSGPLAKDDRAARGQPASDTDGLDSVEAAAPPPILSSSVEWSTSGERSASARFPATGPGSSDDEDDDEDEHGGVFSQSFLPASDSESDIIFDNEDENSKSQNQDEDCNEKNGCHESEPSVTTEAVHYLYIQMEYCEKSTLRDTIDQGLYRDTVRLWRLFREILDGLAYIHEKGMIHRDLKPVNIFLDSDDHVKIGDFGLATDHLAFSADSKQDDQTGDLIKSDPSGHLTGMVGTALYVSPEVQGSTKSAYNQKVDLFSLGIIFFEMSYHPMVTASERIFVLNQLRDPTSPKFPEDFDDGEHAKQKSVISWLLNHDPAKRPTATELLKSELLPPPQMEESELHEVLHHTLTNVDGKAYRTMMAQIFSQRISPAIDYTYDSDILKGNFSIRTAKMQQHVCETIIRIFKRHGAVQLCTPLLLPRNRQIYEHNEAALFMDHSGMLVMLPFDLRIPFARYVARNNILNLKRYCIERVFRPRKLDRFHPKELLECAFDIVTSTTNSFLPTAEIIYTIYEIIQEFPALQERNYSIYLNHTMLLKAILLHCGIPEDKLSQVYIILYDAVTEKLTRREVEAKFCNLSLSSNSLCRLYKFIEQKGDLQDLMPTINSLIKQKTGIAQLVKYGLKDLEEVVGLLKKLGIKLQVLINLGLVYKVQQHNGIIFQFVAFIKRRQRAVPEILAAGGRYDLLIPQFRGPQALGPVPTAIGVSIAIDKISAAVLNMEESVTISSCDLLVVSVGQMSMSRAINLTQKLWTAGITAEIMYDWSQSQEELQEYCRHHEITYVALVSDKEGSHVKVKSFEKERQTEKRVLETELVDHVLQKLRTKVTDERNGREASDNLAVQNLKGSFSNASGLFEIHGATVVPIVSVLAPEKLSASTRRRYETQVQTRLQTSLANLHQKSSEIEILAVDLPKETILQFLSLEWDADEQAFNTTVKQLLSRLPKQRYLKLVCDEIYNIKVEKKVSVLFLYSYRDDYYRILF
Chain of intracellular GCN2 (phosphorylation of the GCN2 substrate eIF2α) (Q9P2K8 whole entry): as above

Ki (GCN2 kinase; compounds of Formula III, 4 nM GCN2 kinase)	IC50 ([1]; compounds of Formula III, U2OS cells, 10 μM borrelidin, 1 h, read-out: GCN2 Biomarker (IC50))	Ki (GCN2 kinase; [2])	IC50 [1, 3]	SMILES
> 1000 nM	> 5000 nM	–	–	O=C1CCCC2CN(c3cc(-c4cnn5cccnc45)ccn3)CCN12 (stereo not drawn) [III-16, 2-(4-(pyrazolo[1,5-a]pyrimidin-3-yl)pyridin-2-yl)octahydro-6H-pyrido[1,2-a]pyrazin-6-one]
–	–	100 to 1000 nM	> 5000 nM	CC(=O)N1CCN(c2cccc(-c3cnc4cnccn34)n2)CC1 [IV-2, 1-(4-(6-(Imidazo[1,2-a]pyrazin-3-yl)pyridin-2-yl)piperazin-1-yl)ethan-1-one]
–	–	< 10 nM	< 500 nM	FC(F)(F)c1cn2c(-c3nccc(N4CCOC(c5cn[nH]c5)C4)n3)cnc2cn1 (stereo not drawn) [IV-3, 2-(1H-Pyrazol-4-yl)-4-(2-(6-(trifluoromethyl)imidazo[1,2-a]pyrazin-3-yl)pyrimidin-4-yl)morpholine]
–	–	< 10 nM	500 to 5000 nM	c1cc(N2CCOC(c3cn[nH]c3)C2)nc(-c2cnc3cnc(C4CC4)cn23)n1 (stereo not drawn) [IV-4, 4-(2-(6-Cyclopropylimidazo[1,2-a]pyrazin-3-yl)pyrimidin-4-yl)-2-(1H-pyrazol-4-yl)morpholine]
–	–	10 to 100 nM	500 to 5000 nM	CC1CN(c2ccnc(-c3cnc4cnc(Cl)cn34)n2)CC(CNS(C)(=O)=O)C1(F)F (stereo not drawn) [IV-5, N-((1-(2-(6-Chloroimidazo[1,2-a]pyrazin-3-yl)pyrimidin-4-yl)-4,4-difluoro-5-methylpiperidin-3-yl)methyl)methanesulfonamide]
–	–	< 10 nM	< 500 nM	Clc1cn2c(-c3nccc(N4CCOC(c5cn[nH]c5)C4)n3)cnc2cn1 (stereo not drawn) [IV-6, 4-(2-(6-Chloroimidazo[1,2-a]pyrazin-3-yl)pyrimidin-4-yl)-2-(1H-pyrazol-4-yl)morpholine]
–	–	< 10 nM	< 500 nM	CC1CN(c2ccnc(-c3cnc4cnc(C(F)(F)F)cn34)n2)CC(c2cn[nH]c2)O1 (stereo not drawn) [IV-10, 2-Methyl-6-(1H-pyrazol-4-yl)-4-(2-(6-(trifluoromethyl)imidazo[1,2-a]pyrazin-3-yl)pyrimidin-4-yl)morpholine]
–	–	100 to 1000 nM	> 5000 nM	C[C@H]1CN(c2ccnc(-c3cnc4cnc(C(F)(F)F)cn34)n2)C[C@@H](CNS(C)(=O)=O)C1(F)F [IV-17, N-(((3S,5S)-4,4-Difluoro-5-methyl-1-(2-(6-(trifluoromethyl)imidazo[1,2-a]pyrazin-3-yl)pyrimidin-4-yl)piperidin-3-yl)methyl)methanesulfonamide]
–	–	< 10 nM	500 to 5000 nM	N#Cc1cn2c(-c3nccc(N4CCOC(c5cn[nH]c5)C4)n3)cnc2cn1 (stereo not drawn) [IV-18, 3-(4-(2-(1H-Pyrazol-4-yl)morpholino)pyrimidin-2-yl)imidazo[1,2-a]pyrazine-6-carbonitrile]
–	–	< 10 nM	< 500 nM	Brc1cn2c(-c3nccc(N4CCOC(c5cn[nH]c5)C4)n3)cnc2cn1 (stereo not drawn) [IV-19, 4-(2-(6-Bromoimidazo[1,2-a]pyrazin-3-yl)pyrimidin-4-yl)-2-(1H-pyrazol-4-yl)morpholine]
–	–	10 to 100 nM	500 to 5000 nM	Cc1cn2c(-c3nccc(N4CCOC(c5cn[nH]c5)C4)n3)cnc2cn1 (stereo not drawn) [IV-20, 4-(2-(6-Methylimidazo[1,2-a]pyrazin-3-yl)pyrimidin-4-yl)-2-(1H-pyrazol-4-yl)morpholine]
–	–	100 to 1000 nM	> 5000 nM	C[C@H]1CN(c2ccnc(-c3cnc4cnc(C(F)F)cn34)n2)C[C@@H](CNS(C)(=O)=O)C1(F)F [IV-21, N-(((3S,5S)-1-(2-(6-(Difluoromethyl)imidazo[1,2-a]pyrazin-3-yl)pyrimidin-4-yl)-4,4-difluoro-5-methylpiperidin-3-yl)methyl)methanesulfonamide]
–	–	100 to 1000 nM	> 5000 nM	CC(=O)N1CCN(c2ccnc(-c3cnc4cnc(C(F)F)cn34)n2)CC1 [IV-22, 1-(4-(2-(6-(Difluoromethyl)imidazo[1,2-a]pyrazin-3-yl)pyrimidin-4-yl)piperazin-1-yl)ethan-1-one]
–	–	100 to 1000 nM	> 5000 nM	CS(=O)(=O)NC[C@@H]1CN(c2ccnc(-c3cnc4cnc(C(F)F)cn34)n2)CCO1 [IV-23, (S)—N-((4-(2-(6-(Difluoromethyl)imidazo[1,2-a]pyrazin-3-yl)pyrimidin-4-yl)morpholin-2-yl)methyl)methanesulfonamide]
–	–	100 to 1000 nM	> 5000 nM	CC(=O)N1CCN(c2ccnc(-c3cnc4cnc(C(F)(F)F)cn34)n2)CC1 [IV-24, 1-(4-(2-(6-(Trifluoromethyl)imidazo[1,2-a]pyrazin-3-yl)pyrimidin-4-yl)piperazin-1-yl)ethan-1-one]
–	–	100 to 1000 nM	> 5000 nM	COc1cn2c(-c3nccc(N4CCN(C(C)=O)CC4)n3)cnc2cn1 [IV-25, 1-(4-(2-(6-Methoxyimidazo[1,2-a]pyrazin-3-yl)pyrimidin-4-yl)piperazin-1-yl)ethan-1-one]
–	–	100 to 1000 nM	> 5000 nM	CC(=O)N1CCN(c2ccnc(-c3cnc4cnc(CO)cn34)n2)CC1 [IV-26, 1-(4-(2-(6-(Hydroxymethyl)imidazo[1,2-a]pyrazin-3-yl)pyrimidin-4-yl)piperazin-1-yl)ethan-1-one]

Ki (GCN2 kinase; compounds of Formula III, 4 nM GCN2 kinase)	IC50 ([1]; compounds of Formula III, U2OS cells, 10 μM borrelidin, 1 h, read-out: GCN2 Biomarker (IC50))	Ki (GCN2 kinase; [2])	IC50 [1, 3]	SMILES
–	–	10 to 100 nM	500 to 5000 nM	CS(=O)(=O)NCC1CCN(c2ccnc(-c3cnc4cnc(Br)cn34)n2)C1 (stereo not drawn) [IV-27, N-((1-(2-(6-Bromoimidazo[1,2-a]pyrazin-3-yl)pyrimidin-4-yl)pyrrolidin-3-yl)methyl)methanesulfonamide]
–	–	10 to 100 nM	500 to 5000 nM	FC(F)c1cn2c(-c3nccc(N4CCOC(c5cn[nH]c5)C4)n3)cnc2cn1 (stereo not drawn) [IV-28, 4-(2-(6-(Difluoromethyl)imidazo[1,2-a]pyrazin-3-yl)pyrimidin-4-yl)-2-(1H-pyrazol-4-yl)morpholine]
–	–	100 to 1000 nM	> 5000 nM	CS(=O)(=O)NC[C@H]1CCCN(c2ccnc(-c3cnc4cnc(C(F)F)cn34)n2)C1 [IV-29, (S)—N-((1-(2-(6-(Difluoromethyl)imidazo[1,2-a]pyrazin-3-yl)pyrimidin-4-yl)piperidin-3-yl)methyl)methanesulfonamide]
–	–	100 to 1000 nM	> 5000 nM	CC(=O)N1CCN(c2ccnc(-c3cnc4cnc(C(=O)O)cn34)n2)CC1 [IV-30, 3-(4-(4-Acetylpiperazin-1-yl)pyrimidin-2-yl)imidazo[1,2-a]pyrazine-6-carboxylic acid]
–	–	100 to 1000 nM	500 to 5000 nM	CC(=O)N1CCN(c2ccnc(-c3cnc4cnc(Br)cn34)n2)CC1 [IV-32, 1-(4-(2-(6-Bromoimidazo[1,2-a]pyrazin-3-yl)pyrimidin-4-yl)piperazin-1-yl)ethan-1-one]
–	–	100 to 1000 nM	> 5000 nM	CC(=O)N1CCN(c2ccnc(-c3cnc4cnc(C5CC5)cn34)n2)CC1 [IV-33, 1-(4-(2-(6-Cyclopropylimidazo[1,2-a]pyrazin-3-yl)pyrimidin-4-yl)piperazin-1-yl)ethan-1-one]
–	–	100 to 1000 nM	> 5000 nM	CS(=N)(=O)CC1CCCN(c2ccnc(-c3cnc4cnc(C(F)(F)F)cn34)n2)C1 (stereo not drawn) [IV-34, Imino(methyl)((1-(2-(6-(trifluoromethyl)imidazo[1,2-a]pyrazin-3-yl)pyrimidin-4-yl)piperidin-3-yl)methyl)-λ^6-sulfanone]
–	–	100 to 1000 nM	> 5000 nM	CC(=O)N1CCN(c2ccnc(-c3cnc4cnc(Cl)cn34)n2)CC1 [IV-35, 1-(4-(2-(6-Chloroimidazo[1,2-a]pyrazin-3-yl)pyrimidin-4-yl)piperazin-1-yl)ethan-1-one]
–	–	100 to 1000 nM	> 5000 nM	CC(=O)N1CCN(c2ccnc(-c3cnc4cnc(C(N)=O)cn34)n2)CC1 [IV-36, 3-(4-(4-Acetylpiperazin-1-yl)pyrimidin-2-yl)imidazo[1,2-a]pyrazine-6-carboxamide]
–	–	100 to 1000 nM	> 5000 nM	C=Cc1cn2c(-c3nccc(N4CCN(C(C)=O)CC4)n3)cnc2cn1 [IV-37, 1-(4-(2-(6-Vinylimidazo[1,2-a]pyrazin-3-yl)pyrimidin-4-yl)piperazin-1-yl)ethan-1-one]
–	–	10 to 100 nM	> 5000 nM	NC(=O)c1cn2c(-c3nccc(N4CCOC(c5cn[nH]c5)C4)n3)cnc2cn1 (stereo not drawn) [IV-38, 3-(4-(2-(1H-Pyrazol-4-yl)morpholino)pyrimidin-2-yl)imidazo[1,2-a]pyrazine-6-carboxamide]
–	–	100 to 1000 nM	> 5000 nM	c1cn2c(-c3nccc(N4CCOC(c5cn[nH]c5)C4)n3)cnc2cn1 (stereo not drawn) [IV-39, 4-(2-(Imidazo[1,2-a]pyrazin-3-yl)pyrimidin-4-yl)-2-(1H-pyrazol-4-yl)morpholine]
–	–	10 to 100 nM	< 500 nM	FC(F)(F)c1cn2c(-c3ccnc(N4CCOC(c5cn[nH]c5)C4)n3)cnc2cn1 (stereo not drawn) [IV-40, 2-(1H-Pyrazol-4-yl)-4-(4-(6-(trifluoromethyl)imidazo[1,2-a]pyrazin-3-yl)pyrimidin-2-yl)morpholine]
–	–	100 to 1000 nM	> 5000 nM	NC(=O)NCC1CCCN(c2ccnc(-c3cnc4cnc(C(F)F)cn34)n2)C1 (stereo not drawn) [IV-41, 1-((1-(2-(6-(Difluoromethyl)imidazo[1,2-a]pyrazin-3-yl)pyrimidin-4-yl)piperidin-3-yl)methyl)urea]
–	–	10 to 100 nM	500 to 5000 nM	NC(=O)C1CCCN(c2ccnc(-c3cnc4cnc(C(F)F)cn34)n2)C1 (stereo not drawn) [IV-42, 1-(2-(6-(Difluoromethyl)imidazo[1,2-a]pyrazin-3-yl)pyrimidin-4-yl)piperidine-3-carboxamide]
–	–	100 to 1000 nM	> 5000 nM	CS(=O)(=O)NCCC1CCCN(c2ccnc(-c3cnc4cnc(C(F)F)cn34)n2)C1 (stereo not drawn) [IV-43, N-(2-(1-(2-(6-(Difluoromethyl)imidazo[1,2-a]pyrazin-3-yl)pyrimidin-4-yl)piperidin-3-yl)ethyl)methanesulfonamide]
